From PubChem BioAssay (NCI)
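Where inhibition never reached the appropriate level, the endpoint shown equals the highest concentration tested. Otherwise, values were interpolated linearly from a five-concentration, 48-hour dose response in 96-well plates. TGI is the concentration that stops growth completely.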

These molecules were tested on 786-0 renal (assay: growth of human tumour cells (NCI), 48 h).

Question: How did the TGI turn out when `CC1=C(C(=O)Nc2ccc([N+](=O)[O-])cc2)C(c2cccc([N+](=O)[O-])c2)C(C(=O)Nc2ccc([N+](=O)[O-])cc2)=C(C)N1` was run?
Answer: > 100 µM

Question: For `COc1ccc2c(c1)C1C(CO2)C(c2ccccc2)=NN1c1ccccc1` (stereo not given), which TGI is on record?
Answer: > 100 µM

Question: `CCOC(=O)c1csc(CCCCCCc2nc(C(=O)OCC)cs2)n1` was tested. Which TGI did it give?
Answer: > 56.7 µM

Question: Which TGI does the source give for `Sc1ccccc1S` here?
Answer: > 100 µM

Question: For `CN(C)c1[se]nc2c1c(=O)n(C)c(=O)n2C`, which TGI is on record?
Answer: > 100 µM

What follows are molecules tested on A498 renal (assay: growth of human tumour cells (NCI), 48 h).

Question: For `CC1=C(C(=O)Nc2ccc([N+](=O)[O-])cc2)C(c2cccc([N+](=O)[O-])c2)C(C(=O)Nc2ccc([N+](=O)[O-])cc2)=C(C)N1`, which TGI is on record?
Answer: > 100 µM

Question: `COc1ccc2c(c1)C1C(CO2)C(c2ccccc2)=NN1c1ccccc1` (stereo not given) was tested. Which TGI did it give?
Answer: > 100 µM

Question: How did the TGI turn out when `CCOC(=O)c1csc(CCCCCCc2nc(C(=O)OCC)cs2)n1` was run?
Answer: > 100 µM

Question: Which TGI does the source give for `CN(C)c1[se]nc2c1c(=O)n(C)c(=O)n2C` here?
Answer: > 100 µM

What follows are molecules tested on A549 NSCLC (assay: growth of human tumour cells (NCI), 48 h).

Question: With `CC1=C(C(=O)Nc2ccc([N+](=O)[O-])cc2)C(c2cccc([N+](=O)[O-])c2)C(C(=O)Nc2ccc([N+](=O)[O-])cc2)=C(C)N1` as the molecule, how does the TGI read?
Answer: > 100 µM

Question: For `COc1ccc2c(c1)C1C(CO2)C(c2ccccc2)=NN1c1ccccc1` (stereo not given), which TGI is on record?
Answer: > 100 µM

Question: Which TGI does the source give for `CCOC(=O)c1csc(CCCCCCc2nc(C(=O)OCC)cs2)n1` here?
Answer: > 66.5 µM

Question: How did the TGI turn out when `Sc1ccccc1S` was run?
Answer: > 100 µM

Question: How did the TGI turn out when `CN(C)c1[se]nc2c1c(=O)n(C)c(=O)n2C` was run?
Answer: > 100 µM

What follows are molecules tested on ACHN renal (assay: growth of human tumour cells (NCI), 48 h).

Question: How did the TGI turn out when `CC1=C(C(=O)Nc2ccc([N+](=O)[O-])cc2)C(c2cccc([N+](=O)[O-])c2)C(C(=O)Nc2ccc([N+](=O)[O-])cc2)=C(C)N1` was run?
Answer: > 100 µM

Question: With `COc1ccc2c(c1)C1C(CO2)C(c2ccccc2)=NN1c1ccccc1` (stereo not given) as the molecule, how does the TGI read?
Answer: > 100 µM

Question: `CCOC(=O)c1csc(CCCCCCc2nc(C(=O)OCC)cs2)n1` was tested. Which TGI did it give?
Answer: > 100 µM

Question: Which TGI does the source give for `Sc1ccccc1S` here?
Answer: > 100 µM

Question: `CN(C)c1[se]nc2c1c(=O)n(C)c(=O)n2C` was tested. Which TGI did it give?
Answer: > 100 µM

Each molecule was assayed on CAKI-1 renal (assay: growth of human tumour cells (NCI), 48 h).

Question: For `CCOC(=O)c1csc(CCCCCCc2nc(C(=O)OCC)cs2)n1`, which TGI is on record?
Answer: > 100 µM

Question: How did the TGI turn out when `Sc1ccccc1S` was run?
Answer: > 100 µM

Question: With `CN(C)c1[se]nc2c1c(=O)n(C)c(=O)n2C` as the molecule, how does the TGI read?
Answer: > 100 µM

What follows are molecules tested on CCRF-CEM leukemia (assay: growth of human tumour cells (NCI), 48 h).

Question: With `CC1=C(C(=O)Nc2ccc([N+](=O)[O-])cc2)C(c2cccc([N+](=O)[O-])c2)C(C(=O)Nc2ccc([N+](=O)[O-])cc2)=C(C)N1` as the molecule, how does the TGI read?
Answer: > 100 µM

Question: For `COc1ccc2c(c1)C1C(CO2)C(c2ccccc2)=NN1c1ccccc1` (stereo not given), which TGI is on record?
Answer: > 100 µM

Question: How did the TGI turn out when `CCOC(=O)c1csc(CCCCCCc2nc(C(=O)OCC)cs2)n1` was run?
Answer: > 63.9 µM

Question: With `CN(C)c1[se]nc2c1c(=O)n(C)c(=O)n2C` as the molecule, how does the TGI read?
Answer: > 100 µM

The molecules below were run on COLO 205 colon (assay: growth of human tumour cells (NCI), 48 h).

Question: `CC1=C(C(=O)Nc2ccc([N+](=O)[O-])cc2)C(c2cccc([N+](=O)[O-])c2)C(C(=O)Nc2ccc([N+](=O)[O-])cc2)=C(C)N1` was tested. Which TGI did it give?
Answer: > 100 µM

Question: For `COc1ccc2c(c1)C1C(CO2)C(c2ccccc2)=NN1c1ccccc1` (stereo not given), which TGI is on record?
Answer: > 100 µM

Question: With `CCOC(=O)c1csc(CCCCCCc2nc(C(=O)OCC)cs2)n1` as the molecule, how does the TGI read?
Answer: 98.1 µM

Question: With `Sc1ccccc1S` as the molecule, how does the TGI read?
Answer: > 100 µM

Question: How did the TGI turn out when `CN(C)c1[se]nc2c1c(=O)n(C)c(=O)n2C` was run?
Answer: > 100 µM

The molecules below were run on DLD-1 colon (assay: growth of human tumour cells (NCI), 48 h).

Question: For `CC1=C(C(=O)Nc2ccc([N+](=O)[O-])cc2)C(c2cccc([N+](=O)[O-])c2)C(C(=O)Nc2ccc([N+](=O)[O-])cc2)=C(C)N1`, which TGI is on record?
Answer: > 100 µM

Question: Which TGI does the source give for `COc1ccc2c(c1)C1C(CO2)C(c2ccccc2)=NN1c1ccccc1` (stereo not given) here?
Answer: > 100 µM

Question: With `CCOC(=O)c1csc(CCCCCCc2nc(C(=O)OCC)cs2)n1` as the molecule, how does the TGI read?
Answer: > 100 µM

Question: How did the TGI turn out when `Sc1ccccc1S` was run?
Answer: > 100 µM

Question: With `CN(C)c1[se]nc2c1c(=O)n(C)c(=O)n2C` as the molecule, how does the TGI read?
Answer: > 100 µM

These molecules were tested on DMS 114 small cell lung (assay: growth of human tumour cells (NCI), 48 h).

Question: `CC1=C(C(=O)Nc2ccc([N+](=O)[O-])cc2)C(c2cccc([N+](=O)[O-])c2)C(C(=O)Nc2ccc([N+](=O)[O-])cc2)=C(C)N1` was tested. Which TGI did it give?
Answer: > 100 µM

Question: With `COc1ccc2c(c1)C1C(CO2)C(c2ccccc2)=NN1c1ccccc1` (stereo not given) as the molecule, how does the TGI read?
Answer: > 100 µM

Question: For `Sc1ccccc1S`, which TGI is on record?
Answer: > 100 µM

Question: `CN(C)c1[se]nc2c1c(=O)n(C)c(=O)n2C` was tested. Which TGI did it give?
Answer: > 100 µM

The molecules below were run on DMS 273 small cell lung (assay: growth of human tumour cells (NCI), 48 h).

Question: For `COc1ccc2c(c1)C1C(CO2)C(c2ccccc2)=NN1c1ccccc1` (stereo not given), which TGI is on record?
Answer: > 100 µM

Question: With `CCOC(=O)c1csc(CCCCCCc2nc(C(=O)OCC)cs2)n1` as the molecule, how does the TGI read?
Answer: > 100 µM

Question: `Sc1ccccc1S` was tested. Which TGI did it give?
Answer: > 100 µM

Question: For `CN(C)c1[se]nc2c1c(=O)n(C)c(=O)n2C`, which TGI is on record?
Answer: > 100 µM

The molecules below were run on EKVX NSCLC (assay: growth of human tumour cells (NCI), 48 h).

Question: With `CC1=C(C(=O)Nc2ccc([N+](=O)[O-])cc2)C(c2cccc([N+](=O)[O-])c2)C(C(=O)Nc2ccc([N+](=O)[O-])cc2)=C(C)N1` as the molecule, how does the TGI read?
Answer: > 100 µM

Question: How did the TGI turn out when `COc1ccc2c(c1)C1C(CO2)C(c2ccccc2)=NN1c1ccccc1` (stereo not given) was run?
Answer: > 100 µM

Question: With `CCOC(=O)c1csc(CCCCCCc2nc(C(=O)OCC)cs2)n1` as the molecule, how does the TGI read?
Answer: > 100 µM

Question: With `Sc1ccccc1S` as the molecule, how does the TGI read?
Answer: > 10 µM

Question: How did the TGI turn out when `CN(C)c1[se]nc2c1c(=O)n(C)c(=O)n2C` was run?
Answer: > 100 µM

What follows are molecules tested on HCC-2998 colon (assay: growth of human tumour cells (NCI), 48 h).

Question: Which TGI does the source give for `CC1=C(C(=O)Nc2ccc([N+](=O)[O-])cc2)C(c2cccc([N+](=O)[O-])c2)C(C(=O)Nc2ccc([N+](=O)[O-])cc2)=C(C)N1` here?
Answer: > 100 µM

Question: `COc1ccc2c(c1)C1C(CO2)C(c2ccccc2)=NN1c1ccccc1` (stereo not given) was tested. Which TGI did it give?
Answer: > 100 µM

Question: Which TGI does the source give for `CCOC(=O)c1csc(CCCCCCc2nc(C(=O)OCC)cs2)n1` here?
Answer: > 100 µM

Question: For `Sc1ccccc1S`, which TGI is on record?
Answer: > 100 µM

Question: With `CN(C)c1[se]nc2c1c(=O)n(C)c(=O)n2C` as the molecule, how does the TGI read?
Answer: > 100 µM

What follows are molecules tested on HCT-116 colon (assay: growth of human tumour cells (NCI), 48 h).

Question: How did the TGI turn out when `CC1=C(C(=O)Nc2ccc([N+](=O)[O-])cc2)C(c2cccc([N+](=O)[O-])c2)C(C(=O)Nc2ccc([N+](=O)[O-])cc2)=C(C)N1` was run?
Answer: > 100 µM

Question: With `COc1ccc2c(c1)C1C(CO2)C(c2ccccc2)=NN1c1ccccc1` (stereo not given) as the molecule, how does the TGI read?
Answer: > 100 µM

Question: Which TGI does the source give for `CCOC(=O)c1csc(CCCCCCc2nc(C(=O)OCC)cs2)n1` here?
Answer: > 52.3 µM

Question: Which TGI does the source give for `CN(C)c1[se]nc2c1c(=O)n(C)c(=O)n2C` here?
Answer: > 100 µM

The molecules below were run on HCT-15 colon (assay: growth of human tumour cells (NCI), 48 h).

Question: How did the TGI turn out when `CC1=C(C(=O)Nc2ccc([N+](=O)[O-])cc2)C(c2cccc([N+](=O)[O-])c2)C(C(=O)Nc2ccc([N+](=O)[O-])cc2)=C(C)N1` was run?
Answer: > 100 µM

Question: For `CCOC(=O)c1csc(CCCCCCc2nc(C(=O)OCC)cs2)n1`, which TGI is on record?
Answer: > 100 µM

Question: How did the TGI turn out when `Sc1ccccc1S` was run?
Answer: > 100 µM

Question: Which TGI does the source give for `CN(C)c1[se]nc2c1c(=O)n(C)c(=O)n2C` here?
Answer: > 100 µM

Each molecule was assayed on HL-60(TB) leukemia (assay: growth of human tumour cells (NCI), 48 h).

Question: How did the TGI turn out when `CC1=C(C(=O)Nc2ccc([N+](=O)[O-])cc2)C(c2cccc([N+](=O)[O-])c2)C(C(=O)Nc2ccc([N+](=O)[O-])cc2)=C(C)N1` was run?
Answer: > 100 µM

Question: How did the TGI turn out when `COc1ccc2c(c1)C1C(CO2)C(c2ccccc2)=NN1c1ccccc1` (stereo not given) was run?
Answer: > 100 µM

Question: Which TGI does the source give for `CCOC(=O)c1csc(CCCCCCc2nc(C(=O)OCC)cs2)n1` here?
Answer: > 65.4 µM
